What all share (assay): relative viability (nuclei count vs DMSO), 5 days (fraction); higher = more cells survive
Compound in the test “Afatinib + Foretinib”: CN(C)C/C=C/C(=O)Nc1cc2c(Nc3ccc(F)c(Cl)c3)ncnc2cc1O[C@H]1CCOC1 [Afatinib] + COc1cc2c(Oc3ccc(NC(=O)C4(C(=O)Nc5ccc(F)cc5)CC4)cc3F)ccnc2cc1OCCCN1CCOCC1 [Foretinib] (partner 0.25 µM)
The method, boiled down:
(§1)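 Medians of duplicate plates are given as relative viability. That measure is the nuclei count in treated wells divided by the count in vehicle wells. Counts were taken on 4× images of lung cancer cell lines in 1536-well plates, 5 days after pin-tool dosing the day after seeding with one drug alone or a fixed anchor-drug dose plus five library-drug doses (not always all listed) in √10 steps.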

Compound in the test “Afatinib + Pictilisib”: CN(C)C/C=C/C(=O)Nc1cc2c(Nc3ccc(F)c(Cl)c3)ncnc2cc1O[C@H]1CCOC1 [Afatinib] + CS(=O)(=O)N1CCN(Cc2cc3nc(-c4cccc5[nH]ncc45)nc(N4CCOCC4)c3s2)CC1 [Pictilisib] (partner 1 µM)
The method, boiled down:
as §1

Compound in the test “Afatinib + AZD7762”: CN(C)C/C=C/C(=O)Nc1cc2c(Nc3ccc(F)c(Cl)c3)ncnc2cc1O[C@H]1CCOC1 [Afatinib] + NC(=O)Nc1cc(-c2cccc(F)c2)sc1C(=O)N[C@H]1CCCNC1 [AZD7762] (partner 0.2 µM)
Put shortly: as §1

Compound in the test “Afatinib + Vorinostat”: CN(C)C/C=C/C(=O)Nc1cc2c(Nc3ccc(F)c(Cl)c3)ncnc2cc1O[C@H]1CCOC1 [Afatinib] + O=C(CCCCCCC(=O)Nc1ccccc1)NO [Vorinostat] (partner 1 µM)
The method, boiled down:
as §1

LOU-NH91: the relative viability with Afatinib + Foretinib (first compound 0.005 µM) amounted to 0.541; in the test with Afatinib + Foretinib (first compound 0.01581 µM), 0.524; with Afatinib + Foretinib (first compound 0.05 µM), 0.592; in the test with Afatinib + Foretinib (first compound 0.1581 µM) it was 0.497; with Afatinib + Foretinib (first compound 0.5 µM) it was 0.568; in the test with Afatinib + Pictilisib (first compound 0.005 µM), 0.492. Besides, the relative viability with Afatinib + Pictilisib (first compound 0.01581 µM) was 0.49; with Afatinib + Pictilisib (first compound 0.05 µM), 0.541; in the test with Afatinib + Pictilisib (first compound 0.1581 µM), 0.498; in the test with Afatinib + Pictilisib (first compound 0.5 µM) it was 0.501; with Afatinib + AZD7762 (first compound 0.005 µM) it was 0.707; with Afatinib + AZD7762 (first compound 0.01581 µM) it was 0.704. Moreover, the relative viability in the test with Afatinib + AZD7762 (first compound 0.05 µM) is 0.76; in the test with Afatinib + AZD7762 (first compound 0.1581 µM) it was 0.679; with Afatinib + AZD7762 (first compound 0.5 µM), 0.637; in the test with Afatinib + Vorinostat (first compound 0.005 µM), 0.742; with Afatinib + Vorinostat (first compound 0.01581 µM), 0.776; in the test with Afatinib + Vorinostat (first compound 0.05 µM), 0.837. The relative viability was 0.748 with Afatinib + Vorinostat (first compound 0.1581 µM) and 0.848 with Afatinib + Vorinostat (first compound 0.5 µM).

Turning to NCI-H2347, the relative viability in the test with Afatinib + Foretinib (first compound 0.005 µM) worked out at 1.08; with Afatinib + Foretinib (first compound 0.01581 µM) it was 0.842; with Afatinib + Foretinib (first compound 0.05 µM) it was 1.03; in the test with Afatinib + Foretinib (first compound 0.1581 µM), 0.899; with Afatinib + Foretinib (first compound 0.5 µM), 0.518; with Afatinib + Pictilisib (first compound 0.005 µM), 0.737. The relative viability is 0.665 with Afatinib + Pictilisib (first compound 0.01581 µM); 0.672 with Afatinib + Pictilisib (first compound 0.05 µM); 0.596 with Afatinib + Pictilisib (first compound 0.1581 µM); 0.841 in the test with Afatinib + Pictilisib (first compound 0.5 µM); 0.568 with Afatinib + AZD7762 (first compound 0.005 µM); 0.738 in the test with Afatinib + AZD7762 (first compound 0.01581 µM). Moreover, the relative viability came out at 0.589 in the test with Afatinib + AZD7762 (first compound 0.05 µM); 0.725 in the test with Afatinib + AZD7762 (first compound 0.1581 µM); 0.541 in the test with Afatinib + AZD7762 (first compound 0.5 µM); 0.628 with Afatinib + Vorinostat (first compound 0.005 µM); 0.73 in the test with Afatinib + Vorinostat (first compound 0.01581 µM); 0.587 with Afatinib + Vorinostat (first compound 0.05 µM). Besides, the relative viability in the test with Afatinib + Vorinostat (first compound 0.1581 µM) turned out to be 0.524; with Afatinib + Vorinostat (first compound 0.5 µM) it was 0.565.

In the case of NCI-H2126, the relative viability is 1.03 with Afatinib + Foretinib (first compound 0.005 µM); 1.19 in the test with Afatinib + Foretinib (first compound 0.01581 µM); 1.08 with Afatinib + Foretinib (first compound 0.05 µM); 0.729 in the test with Afatinib + Foretinib (first compound 0.1581 µM); 0.853 with Afatinib + Foretinib (first compound 0.5 µM); 0.487 in the test with Afatinib + Pictilisib (first compound 0.005 µM). For the same cell line, the relative viability stood at 0.447 with Afatinib + Pictilisib (first compound 0.01581 µM); 0.36 with Afatinib + Pictilisib (first compound 0.05 µM); 0.436 in the test with Afatinib + Pictilisib (first compound 0.1581 µM); 0.37 in the test with Afatinib + Pictilisib (first compound 0.5 µM); 1.02 with Afatinib + AZD7762 (first compound 0.005 µM); 1.02 with Afatinib + AZD7762 (first compound 0.01581 µM). The relative viability with Afatinib + AZD7762 (first compound 0.05 µM) is 0.822; with Afatinib + AZD7762 (first compound 0.1581 µM) it was 0.776; with Afatinib + AZD7762 (first compound 0.5 µM) it was 0.793; in the test with Afatinib + Vorinostat (first compound 0.005 µM), 0.732; in the test with Afatinib + Vorinostat (first compound 0.01581 µM), 0.683; with Afatinib + Vorinostat (first compound 0.05 µM), 0.617. For the same cell line, the relative viability in the test with Afatinib + Vorinostat (first compound 0.1581 µM) worked out at 0.43; with Afatinib + Vorinostat (first compound 0.5 µM), 0.481.

As for HCC-827, the relative viability with Afatinib + Foretinib (first compound 0.005 µM) amounted to 0.135; in the test with Afatinib + Foretinib (first compound 0.01581 µM), 0.166; in the test with Afatinib + Foretinib (first compound 0.05 µM) it was 0.162; in the test with Afatinib + Foretinib (first compound 0.1581 µM) it was 0.147; in the test with Afatinib + Foretinib (first compound 0.5 µM) it was 0.163; with Afatinib + Pictilisib (first compound 0.005 µM) it was 0.295. In addition, the relative viability with Afatinib + Pictilisib (first compound 0.01581 µM) was found to be 0.324; with Afatinib + Pictilisib (first compound 0.05 µM) it was 0.312; with Afatinib + Pictilisib (first compound 0.1581 µM), 0.37; with Afatinib + Pictilisib (first compound 0.5 µM), 0.226; with Afatinib + AZD7762 (first compound 0.005 µM), 0.11; with Afatinib + AZD7762 (first compound 0.01581 µM), 0.119. The relative viability with Afatinib + AZD7762 (first compound 0.05 µM) came out at 0.125; in the test with Afatinib + AZD7762 (first compound 0.1581 µM) it was 0.121; with Afatinib + AZD7762 (first compound 0.5 µM), 0.0942; with Afatinib + Vorinostat (first compound 0.005 µM), 0.166; with Afatinib + Vorinostat (first compound 0.01581 µM), 0.134; with Afatinib + Vorinostat (first compound 0.05 µM) it was 0.146. Moreover, the relative viability turned out to be 0.151 with Afatinib + Vorinostat (first compound 0.1581 µM) and 0.146 with Afatinib + Vorinostat (first compound 0.5 µM).

Regarding NCI-H3122, the relative viability turned out to be 0.924 with Afatinib + Foretinib (first compound 0.005 µM); 0.982 with Afatinib + Foretinib (first compound 0.01581 µM); 0.949 with Afatinib + Foretinib (first compound 0.05 µM); 0.906 with Afatinib + Foretinib (first compound 0.1581 µM); 0.938 with Afatinib + Foretinib (first compound 0.5 µM); 0.558 with Afatinib + Pictilisib (first compound 0.005 µM). Also, the relative viability was 0.628 in the test with Afatinib + Pictilisib (first compound 0.01581 µM); 0.663 with Afatinib + Pictilisib (first compound 0.05 µM); 0.557 with Afatinib + Pictilisib (first compound 0.1581 µM); 0.621 with Afatinib + Pictilisib (first compound 0.5 µM); 1.07 with Afatinib + AZD7762 (first compound 0.005 µM); 0.985 in the test with Afatinib + AZD7762 (first compound 0.01581 µM). Besides, the relative viability with Afatinib + AZD7762 (first compound 0.05 µM) came out at 0.991; in the test with Afatinib + AZD7762 (first compound 0.1581 µM) it was 0.883; in the test with Afatinib + AZD7762 (first compound 0.5 µM), 1.05; with Afatinib + Vorinostat (first compound 0.005 µM) it was 1.1; with Afatinib + Vorinostat (first compound 0.01581 µM), 1; with Afatinib + Vorinostat (first compound 0.05 µM), 1.06. Also, the relative viability with Afatinib + Vorinostat (first compound 0.1581 µM) stood at 0.956; in the test with Afatinib + Vorinostat (first compound 0.5 µM), 0.944.

In the case of HOP-62, the relative viability with Afatinib + Foretinib (first compound 0.005 µM) is 1.18; in the test with Afatinib + Foretinib (first compound 0.01581 µM), 1.23; with Afatinib + Foretinib (first compound 0.05 µM) it was 1.18; with Afatinib + Foretinib (first compound 0.1581 µM), 1.14; in the test with Afatinib + Foretinib (first compound 0.5 µM), 1.1; in the test with Afatinib + Pictilisib (first compound 0.005 µM) it was 0.802. Besides, the relative viability with Afatinib + Pictilisib (first compound 0.01581 µM) turned out to be 0.688; in the test with Afatinib + Pictilisib (first compound 0.05 µM) it was 0.757; with Afatinib + Pictilisib (first compound 0.1581 µM), 0.662; with Afatinib + Pictilisib (first compound 0.5 µM), 0.639; with Afatinib + AZD7762 (first compound 0.005 µM), 0.561; with Afatinib + AZD7762 (first compound 0.01581 µM) it was 0.512. Also, the relative viability was 0.571 with Afatinib + AZD7762 (first compound 0.05 µM); 0.64 with Afatinib + AZD7762 (first compound 0.1581 µM); 0.471 in the test with Afatinib + AZD7762 (first compound 0.5 µM); 0.736 in the test with Afatinib + Vorinostat (first compound 0.005 µM); 0.655 in the test with Afatinib + Vorinostat (first compound 0.01581 µM); 0.746 with Afatinib + Vorinostat (first compound 0.05 µM). Besides, the relative viability with Afatinib + Vorinostat (first compound 0.1581 µM) came out at 0.727; with Afatinib + Vorinostat (first compound 0.5 µM) it was 0.673.

The values are drawn from the supplement of paper PMC10307832.
